Laboratory results from PubChem BioAssay AID330 (DTP/NCI, 2004).
Values joined by “and” are separate entries in the source; they are usually repeats but may differ in a detail not shown here. Equal values may be shown once. Inconclusive results and toxic doses are left out. How the source made its calls: active means survival T/C of 150% or more; inactive means T/C below 125% in these data.

Test system: P388 leukemia ip, CD2F1 mice, survival T/C
Assay: NCI In Vivo Anticancer Drug Screen. Data for tumor model P388 Leukemia (intraperitoneal) in CD2F1 (CDF1) mice
Details: endpoint: median survival time, higher = longer survival
Summary of the method: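 Mice carrying the transplanted tumor received test compound or vehicle. Survival was recorded in each group, and the value is the treated-group measurement divided by that of the vehicle-treated control group.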

[1] = dose: 25.0 mg/kg/injection, schedule: Q01DX009 (ip), vehicle: saline
[2] = dose: 50.0 mg/kg/injection, schedule: Q01DX009 (ip), vehicle: saline
[3] = dose: 60.0 mg/kg/injection, schedule: Q01DX005 (ip), vehicle: saline with Tween-80

Measured: T/C

O=C(O)C1(C(=O)O)CCC1.[NH2-].[NH2-].[Pt+2]
inactive: dose: 12.5 mg/kg/injection, schedule: Q01DX001 (im), vehicle: suspension in saline 105 % of control | dose: 12.5 mg/kg/injection, schedule: Q01DX001 (ip), vehicle: suspension in saline 117 % of control | dose: 12.5 mg/kg/injection, schedule: Q01DX001 (iv), vehicle: suspension in saline 108 % of control | dose: 12.5 mg/kg/injection, schedule: Q01DX001 (sc), vehicle: suspension in saline 103 % of control | dose: 12.5 mg/kg/injection, schedule: Q01DX009 (ip), vehicle: saline 113 % of control | dose: 12.5 mg/kg/injection, schedule: Q04DX003 (iv), vehicle: saline 110 % of control | dose: 25.0 mg/kg/injection, schedule: Q01DX001 (im), vehicle: suspension in saline 117 % of control | dose: 25.0 mg/kg/injection, schedule: Q01DX001 (ip), vehicle: saline 107 % of control | dose: 25.0 mg/kg/injection, schedule: Q01DX001 (ip), vehicle: suspension in saline 121 % of control | dose: 25.0 mg/kg/injection, schedule: Q01DX001 (iv), vehicle: suspension in saline 106 % of control | dose: 25.0 mg/kg/injection, schedule: Q01DX001 (oral), vehicle: suspension in saline 100 % of control | dose: 25.0 mg/kg/injection, schedule: Q01DX001 (sc), vehicle: suspension in saline 107 % of control | dose: 25.0 mg/kg/injection, schedule: Q01DX005 (iv), vehicle: water 90 % of control | dose: 25.0 mg/kg/injection, schedule: Q01DX009 (ip), vehicle: water 112 % of control | dose: 25.0 mg/kg/injection, schedule: Q04DX003 (ip), vehicle: saline 114 % of control | dose: 25.0 mg/kg/injection, schedule: Q04DX003 (iv), vehicle: saline 113 % of control | dose: 50.0 mg/kg/injection, schedule: Q01DX001 (im), vehicle: suspension in saline 110 % of control | dose: 50.0 mg/kg/injection, schedule: Q01DX001 (ip), vehicle: suspension in saline 124 % of control | dose: 50.0 mg/kg/injection, schedule: Q01DX001 (iv), vehicle: suspension in saline 110 % of control | dose: 50.0 mg/kg/injection, schedule: Q01DX001 (oral), vehicle: suspension in saline 103 % of control | dose: 50.0 mg/kg/injection, schedule: Q01DX001 (sc), vehicle: suspension in saline 110 % of control | [2] 100 % of control | dose: 50.0 mg/kg/injection, schedule: Q04DX003 (iv), vehicle: saline 117 % of control | dose: 50.0 mg/kg/injection, schedule: Q04DX003 (oral), vehicle: saline 116 % of control | dose: 100.0 mg/kg/injection, schedule: Q01DX001 (im), vehicle: suspension in saline 111 % of control | dose: 100.0 mg/kg/injection, schedule: Q01DX001 (iv), vehicle: saline 105 % of control | dose: 100.0 mg/kg/injection, schedule: Q01DX001 (iv), vehicle: suspension in saline 115 % of control | dose: 100.0 mg/kg/injection, schedule: Q01DX001 (iv), vehicle: water 93 % of control | dose: 100.0 mg/kg/injection, schedule: Q01DX001 (sc), vehicle: suspension in saline 120 % of control | dose: 100.0 mg/kg/injection, schedule: Q04DX003 (ip), vehicle: water 96 % of control | dose: 100.0 mg/kg/injection, schedule: Q04DX003 (iv), vehicle: saline 123 % of control | dose: 100.0 mg/kg/injection, schedule: Q04DX003 (oral), vehicle: saline 114 % of control | dose: 200.0 mg/kg/injection, schedule: Q01DX001 (im), vehicle: suspension in saline 105 % of control | dose: 200.0 mg/kg/injection, schedule: Q01DX001 (iv), vehicle: suspension in saline 100 % of control | dose: 200.0 mg/kg/injection, schedule: Q01DX001 (oral), vehicle: saline 104 % of control | dose: 200.0 mg/kg/injection, schedule: Q01DX001 (oral), vehicle: suspension in saline 110 % of control | dose: 200.0 mg/kg/injection, schedule: Q01DX001 (sc), vehicle: suspension in saline 107 % of control | dose: 200.0 mg/kg/injection, schedule: Q04DX003 (oral), vehicle: saline 117 % of control | dose: 400.0 mg/kg/injection, schedule: Q01DX001 (iv), vehicle: saline 91 % of control | dose: 400.0 mg/kg/injection, schedule: Q01DX001 (oral), vehicle: saline 100 % of control | dose: 400.0 mg/kg/injection, schedule: Q01DX001 (oral), vehicle: suspension in saline 101 % of control | dose: 400.0 mg/kg/injection, schedule: Q04DX003 (oral), vehicle: saline 122 % of control
active: dose: 6.25 mg/kg/injection, schedule: Q01DX005 (ip), vehicle: water 152 % of control | dose: 6.25 mg/kg/injection, schedule: Q01DX009 (ip), vehicle: water 167 % of control | dose: 12.5 mg/kg/injection, schedule: Q01DX005 (ip), vehicle: water 166 % of control | dose: 12.5 mg/kg/injection, schedule: Q01DX009 (ip), vehicle: water 189 % of control | dose: 25.0 mg/kg/injection, schedule: Q01DX005 (ip), vehicle: water 194 % of control | [1] 152 % of control | dose: 25.0 mg/kg/injection, schedule: Q04DX003 (ip), vehicle: water 186 % of control | dose: 50.0 mg/kg/injection, schedule: Q01DX001 (ip), vehicle: water 161 % of control | dose: 50.0 mg/kg/injection, schedule: Q04DX003 (ip), vehicle: water 217 % of control | dose: 100.0 mg/kg/injection, schedule: Q01DX001 (ip), vehicle: water 164 % of control | dose: 100.0 mg/kg/injection, schedule: Q04DX003 (ip), vehicle: saline 170 % of control

CS1(C)=Nc2c([N+](=O)[O-])cc([N+](=O)[O-])cc2S(=O)(=O)N=1
inactive: [3] 98 % of control | dose: 120.0 mg/kg/injection, schedule: Q01DX005 (ip), vehicle: saline with Tween-80 94 % of control | dose: 240.0 mg/kg/injection, schedule: Q01DX005 (ip), vehicle: saline with Tween-80 94 % of control

CCOC(=O)C(=CNc1ccc2c(c1)OCO2)C(=O)OCC
inactive: dose: 50.0 mg/kg/injection, schedule: Q01DX005 (ip), vehicle: distilled water + Tween-80 + alcohol 100 % of control | dose: 100.0 mg/kg/injection, schedule: Q01DX005 (ip), vehicle: distilled water + Tween-80 + alcohol 95 % of control | dose: 200.0 mg/kg/injection, schedule: Q01DX005 (ip), vehicle: distilled water + Tween-80 + alcohol 102 % of control

Cc1csc2cc(Br)c3ccccc3c12
inactive: dose: 100.0 mg/kg/injection, schedule: Q01DX001 (ip), vehicle: saline with Tween-80 101 % of control | dose: 200.0 mg/kg/injection, schedule: Q01DX001 (ip), vehicle: saline with Tween-80 103 % of control

c1ccc(-c2nnn(CCCN3CCOCC3)n2)cc1
inactive: dose: 100.0 mg/kg/injection, schedule: Q01DX001 (ip), vehicle: Klucel (hydroxypropylcellulose) (HPC) 100 % of control | dose: 200.0 mg/kg/injection, schedule: Q01DX001 (ip), vehicle: Klucel (hydroxypropylcellulose) (HPC) 97 % of control | dose: 400.0 mg/kg/injection, schedule: Q01DX001 (ip), vehicle: Klucel (hydroxypropylcellulose) (HPC) 102 % of control

NC(CS)C(=O)[O][Sn]([O]C(=O)C(N)CS)([O]C(=O)C(N)CS)[O]C(=O)C(N)CS (configuration not stated)
inactive: dose: 50.0 mg/kg/injection, schedule: Q01DX005 (ip), vehicle: Klucel (hydroxypropylcellulose) (HPC) 99 % of control | dose: 100.0 mg/kg/injection, schedule: Q01DX005 (ip), vehicle: Klucel (hydroxypropylcellulose) (HPC) 108 % of control | dose: 200.0 mg/kg/injection, schedule: Q01DX005 (ip), vehicle: Klucel (hydroxypropylcellulose) (HPC) 89 % of control

C=CCN1CCC23c4c5ccc(O)c4OC2C(=NN=C2CCC4(O)C6Cc7ccc(O)c8c7C4(CCN6CC=C)C2O8)CCC3(O)C1C5 (configuration not stated)
inactive: dose: 15.0 mg/kg/injection, schedule: Q01DX005 (ip), vehicle: saline with Tween-80 92 % of control | dose: 30.0 mg/kg/injection, schedule: Q01DX005 (ip), vehicle: saline with Tween-80 90 % of control | [3] 100 % of control and 101 % of control

COc1cccc2c1C(=O)c1c(O)c3c(c(O)c1C2=O)C/C(=N/O)CC3OC1CC(NC(=O)C(F)(F)F)C(O)C(C)O1 (configuration not stated)
inactive: dose: 1.56 mg/kg/injection, schedule: Q01DX009 (ip), vehicle: other 106 % of control | dose: 3.13 mg/kg/injection, schedule: Q01DX009 (ip), vehicle: other 88 % of control | dose: 6.25 mg/kg/injection, schedule: Q01DX009 (ip), vehicle: other 92 % of control | dose: 12.5 mg/kg/injection, schedule: Q01DX009 (ip), vehicle: other 110 % of control

N=C=S.O=NO.O=N[O-].[Co+3].[NH-]CC[NH-].[NH-]CC[NH-]
inactive: dose: 13.0 mg/kg/injection, schedule: Q01DX009 (ip), vehicle: saline 105 % of control | [1] 113 % of control | [2] 103 % of control
